Results as given in patent publication EP3390549B1, “FORMULATIONS CONTAINING A SOLID SOLVENT” (Merck Patent GmbH, priority 2015, dated 2017).

Assay: Solubility limit of the solid (second) organic solvent in the liquid (first) organic solvent
Format: physicochemical
Settings: dissolved at 40°C, stability on standing up to a week at 25°C
Text: The differences between the Hansen Solubility parameter Hd, Hp and Hh of the first and the second solvent can be realized individually or collectively. In a very preferred embodiment, at least two and more preferred all the differences between the Hansen Solubility parameter Hd, Hp and Hh of the first and the second solvent are commonly realized.

[1] = in liquid solvent 3-Phenoxy toluene

O=C1CCCCCCCCCCCCCCO1 [ω-Pentadecalactone]
Solubility limit [1]: >70%

C=C1CC[C@H]2O[C@]2(C)CC[C@@H]2[C@@H]1CC2(C)C [Caryophyllene oxide]
Solubility limit [1]: 55%
Solubility limit (in liquid solvent α-Pinene oxide): 60%
Solubility limit (in liquid solvent β-Caryophyllene): 35%
